Experimental data taken from the NIST ThermoML archive (doi:10.1021/je034225b).
Numbers after ± are expanded uncertainties.

Key:
[1] = xn = mol fraction of the nth substance listed; conditions: for surface tension liquid-gas: 297 K; for mass density: 100 kPa, Liquid, Pycnometric method
[2] = 297 K

CNC [dimethylamine] + O
[1]
Conditions	surface tension liquid-gas [mN/m]
x1 = 0.002	68.4 ± 2.7
x1 = 0.003	65.7 ± 2.6
x1 = 0.004	65.8 ± 2.6
x1 = 0.006	64.7 ± 2.6
x1 = 0.008	62.8 ± 2.5
x1 = 0.01	61.8 ± 2.5
x1 = 0.013	60.4 ± 2.4
x1 = 0.016	58.4 ± 2.3
x1 = 0.025	56.1 ± 2.2
x1 = 0.034	53.2 ± 2.1
x1 = 0.043	51 ± 2
x1 = 0.052	49.1 ± 2
x1 = 0.061	48.1 ± 1.9
x1 = 0.071	47.8 ± 1.9
x1 = 0.091	42.4 ± 1.7
x1 = 0.112	40.4 ± 1.6
x1 = 0.135	38.9 ± 1.6
x1 = 0.158	36.8 ± 1.5
x1 = 0.184	35.3 ± 1.4
x1 = 0.21	33.7 ± 1.4

[1], 298.15 K
Conditions	mass density [kg/m3]
x1 = 0.001	998 ± 10
x1 = 0.002	994 ± 10
x1 = 0.004	988 ± 10
x1 = 0.008	987 ± 10
x1 = 0.016	984 ± 10
x1 = 0.025	974 ± 10
x1 = 0.034	969 ± 10
x1 = 0.043	967 ± 10
x1 = 0.091	941 ± 9
x1 = 0.146	918 ± 9
x1 = 0.21	888 ± 9

O=S(=O)(O)O [sulfuric acid] + O
[1]
Conditions	surface tension liquid-gas [mN/m]
x1 = 0.001	71.6 ± 2.9
x1 = 0.003	71.4 ± 2.9
x1 = 0.006	71.2 ± 2.8
x1 = 0.008	71.9 ± 2.9
x1 = 0.026	72.4 ± 2.9
x1 = 0.052	73.1 ± 2.9
x1 = 0.09	74 ± 3
x1 = 0.125	74.7 ± 3
x1 = 0.18	75.2 ± 3
x1 = 0.25	73.6 ± 3
x1 = 0.35	72.3 ± 2.9
x1 = 0.48	69.4 ± 2.9

mass density [kg/m3], [1]
Conditions	298.15 K	571.15 K
x1 = 0.001	998 ± 10	–
x1 = 0.003	1005 ± 10	1005 ± 20
x1 = 0.006	1017 ± 10	–
x1 = 0.008	1024 ± 10	–
x1 = 0.026	1085 ± 11	–
x1 = 0.052	1156 ± 12	–
x1 = 0.09	1253 ± 13	–
x1 = 0.125	1328 ± 13	–
x1 = 0.18	1422 ± 14	–
x1 = 0.25	1528 ± 15	–
x1 = 0.35	1622 ± 16	–
x1 = 0.48	1725 ± 17	–

O [water]
Conditions	surface tension liquid-gas [mN/m]
[2]	70.4 ± 2.8
